Measurements as given in patent US8796289B2 (AbbVie Inc., priority 2011, dated 2014).

Target: GST-tagged-Wee1 kinase (Homo sapiens, UniProt P30291)
Test: Wee1 time-resolved fluorescence equilibrium binding assay (displacement of Oregon Green-labeled ATP-competitive kinase probe)
Conditions: not given
Method: Wee1 kinase was assayed using a time-resolved fluorescence equilibrium binding assay monitoring displacement of a rapidly reversible Oregon Green-labeled ATP-competitive kinase probe (N-(2-(2-(2-(4-(4-(5-chloro-4-(2-(1-hydroxycyclobutyl)thiazol-5-yl)-1H-pyrrolo[2,3-b]pyridin-2-yl)phenyl)piperazin-1-yl)ethoxy)ethoxy)ethyl)-2′,7′-difluoro-3′,6′-dihydroxy-3-oxo-3H-spiro[isobenzofuran-1,9′-xanthene]-5-carboxamide) by competitive Wee1 inhibitors.

GST-tagged-Wee1 kinase, sequence (P30291 whole entry): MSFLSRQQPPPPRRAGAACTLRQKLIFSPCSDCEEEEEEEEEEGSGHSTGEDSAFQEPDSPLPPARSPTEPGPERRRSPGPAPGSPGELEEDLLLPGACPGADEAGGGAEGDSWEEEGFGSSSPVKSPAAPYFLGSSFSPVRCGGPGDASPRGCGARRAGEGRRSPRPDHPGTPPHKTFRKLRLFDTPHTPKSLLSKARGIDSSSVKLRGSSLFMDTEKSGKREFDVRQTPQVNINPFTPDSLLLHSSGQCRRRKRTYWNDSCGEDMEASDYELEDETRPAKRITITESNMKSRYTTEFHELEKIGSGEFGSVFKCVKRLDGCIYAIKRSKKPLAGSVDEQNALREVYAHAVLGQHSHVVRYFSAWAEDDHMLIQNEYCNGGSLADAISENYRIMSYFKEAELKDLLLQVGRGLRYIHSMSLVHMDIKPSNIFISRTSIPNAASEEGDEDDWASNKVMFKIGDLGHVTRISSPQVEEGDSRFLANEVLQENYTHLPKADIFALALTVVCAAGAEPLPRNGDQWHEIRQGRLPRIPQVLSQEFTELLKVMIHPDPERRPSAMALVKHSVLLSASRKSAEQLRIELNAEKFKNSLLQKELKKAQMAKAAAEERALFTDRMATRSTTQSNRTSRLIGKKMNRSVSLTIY

**Q.** Cc1nn(-c2c(Cl)cccc2Cl)c(=O)c2cnc(Nc3cccc(N4CCOCC4)c3)nc12 [Example 505, 6-(2,6-dichlorophenyl)-8-methyl-2-{[3-(morpholin-4-yl)phenyl]amino}pyrimido[4,5-d]pyridazin-5(6H)-one] was tested. Which Ki did it give?
**A.** 2.7 nM

**Q.** With CN1Cc2cc(Nc3ncc4c(=O)n(-c5c(Cl)cccc5Cl)nc(C(F)(F)F)c4n3)ccc2C2(CC2)C1 [Example 413, 6-(2,6-dichlorophenyl)-2-[(2′-methyl-2′,3′-dihydro-1′H-spiro[cyclopropane-1,4′-isoquinolin]-7′-yl)amino]-8-(trifluoromethyl)pyrimido[4,5-d]pyridazin-5(6H)-one] as the compound, how does the Ki read?
**A.** 0.34 nM

**Q.** How did the Ki turn out when O=c1c2cnc(Nc3ccc(N4CCNCC4)cc3)nc2c(C(F)(F)F)nn1-c1c(Cl)cccc1Cl [Example 418, 6-(2,6-dichlorophenyl)-2-{[4-(piperazin-1-yl)phenyl]amino}-8-(trifluoromethyl)pyrimido[4,5-d]pyridazin-5(6H)-one] was run?
**A.** 0.35 nM

**Q.** Which Ki does the source give for Cn1ccnc1-c1nn(-c2c(Cl)cccc2Cl)c(=O)c2cnc(Nc3ccc4c(c3)CNCC43CC3)nc12 [Example 356, 6-(2,6-dichlorophenyl)-2-(2′,3′-dihydro-1′H-spiro[cyclopropane-1,4′-isoquinolin]-7′-ylamino)-8-(1-methyl-1H-imidazol-2-yl)pyrimido[4,5-d]pyridazin-5(6H)-one] here?
**A.** 1 nM

**Q.** Cc1nn(-c2c(Cl)cccc2Cl)c(=O)c2cnc(Nc3ccc(N4CC5CNCC5C4)cc3)nc12 (stereo not drawn) [Example 446, 6-(2,6-dichlorophenyl)-2-{[4-(hexahydropyrrolo[3,4-c]pyrrol-2(1H)-yl)phenyl]amino}-8-methylpyrimido[4,5-d]pyridazin-5(6H)-one] was tested. Which Ki did it give?
**A.** 0.27 nM

**Q.** With COCCn1ccc(-c2nn(-c3c(Cl)cccc3Cl)c(=O)c3cnc(Nc4ccc(N5CCN(C)CC5)cc4)nc23)n1 [Example 252, 6-(2,6-dichlorophenyl)-8-[1-(2-methoxyethyl)-1H-pyrazol-3-yl]-2-{[4-(4-methylpiperazin-1-yl)phenyl]amino}pyrimido[4,5-d]pyridazin-5(6H)-one] as the compound, how does the Ki read?
**A.** 0.4 nM

**Q.** For Cc1nn(-c2c(Cl)cccc2Cl)c(=O)c2cnc(Nc3ccc4c(c3)CN(S(C)(=O)=O)CC43CC3)nc12 [Example 427, 6-(2,6-dichlorophenyl)-8-methyl-2-{[2′-(methylsulfonyl)-2′,3′-dihydro-1′H-spiro[cyclopropane-1,4′-isoquinolin]-7′-yl]amino}pyrimido[4,5-d]pyridazin-5(6H)-one], which Ki is on record?
**A.** 0.91 nM

**Q.** How did the Ki turn out when Cc1cc(Nc2ncc3c(=O)n(-c4ncccc4Cl)nc(C)c3n2)ccc1N1CCCN(C)CC1 [Example 369, 6-(3-chloropyridin-2-yl)-8-methyl-2-(3-methyl-4-(4-methyl-1,4-diazepan-1-yl)phenylamino)pyridazino[4,5-d]pyrimidin-5(6H)-one] was run?
**A.** 1.8 nM

**Q.** With O=c1c2cnc(Nc3ccc(N4CCNCC4)cc3)nc2c(-c2ccccn2)nn1C1CCCCC1 [Example 249, 6-cyclohexyl-2-{[4-(piperazin-1-yl)phenyl]amino}-8-(pyridin-2-yl)pyrimido[4,5-d]pyridazin-5(6H)-one] as the compound, how does the Ki read?
**A.** 1500 nM

**Q.** How did the Ki turn out when CN1CCN(c2ccc(Nc3ncc4c(=O)n(-c5cccc(Cl)c5)nc(C5CCCC5)c4n3)cc2)CC1 [Example 56, 6-(3-chlorophenyl)-8-cyclopentyl-2-{[4-(4-methylpiperazin-1-yl)phenyl]amino}pyrimido[4,5-d]pyridazin-5(6H)-one] was run?
**A.** 63 nM

**Q.** CN1CCN(c2ccc(Nc3ncc4c(=O)n(-c5c(Cl)cccc5Cl)nc(-c5ccc(C(=O)N(C)C)cc5)c4n3)cc2)CC1 [Example 291, 4-[6-(2,6-dichlorophenyl)-2-{[4-(4-methylpiperazin-1-yl)phenyl]amino}-5-oxo-5,6-dihydropyrimido[4,5-d]pyridazin-8-yl]-N,N-dimethylbenzamide] was tested. Which Ki did it give?
**A.** 0.38 nM

**Q.** Which Ki does the source give for Cc1nn(-c2c(Cl)cccc2Cl)c(=O)c2cnc(Nc3ccc(C4CCN(C)CC4)cc3)nc12 [Example 456, 6-(2,6-dichlorophenyl)-8-methyl-2-{[4-(1-methylpiperidin-4-yl)phenyl]amino}pyrimido[4,5-d]pyridazin-5(6H)-one] here?
**A.** 0.5 nM

**Q.** CC1CCCC(C)C1n1nc(-c2ccccn2)c2nc(Nc3ccc4c(c3)CNCC4(C)C)ncc2c1=O (stereo not drawn) [Example 331, 6-(2,6-dimethylcyclohexyl)-2-[(4,4-dimethyl-1,2,3,4-tetrahydroisoquinolin-7-yl)amino]-8-(pyridin-2-yl)pyrimido[4,5-d]pyridazin-5(6H)-one] was tested. Which Ki did it give?
**A.** 180 nM

**Q.** Which Ki does the source give for CC(=O)N1CCc2cc(Nc3ncc4c(=O)n(-c5c(Cl)cccc5Cl)nc(C)c4n3)ccc2C1 [Example 449, 2-[(2-acetyl-1,2,3,4-tetrahydroisoquinolin-6-yl)amino]-6-(2,6-dichlorophenyl)-8-methylpyrimido[4,5-d]pyridazin-5(6H)-one] here?
**A.** 0.55 nM

**Q.** For CCCc1nn(CC(F)(F)F)c(=O)c2cnc(Nc3ccc(N4CCN(C)CC4)cc3)nc12 [Example 23, 2-{[4-(4-methylpiperazin-1-yl)phenyl]amino}-8-propyl-6-(2,2,2-trifluoroethyl)pyrimido[4,5-d]pyridazin-5(6H)-one], which Ki is on record?
**A.** 370 nM

**Q.** With CN1CCN(c2ccc(Nc3ncc4c(=O)n(-c5c(F)cccc5Cl)nc(-c5cccc(O)n5)c4n3)cc2)CC1 [Example 303, 6-(2-chloro-6-fluorophenyl)-8-(6-hydroxypyridin-2-yl)-2-{[4-(4-methylpiperazin-1-yl)phenyl]amino}pyrimido[4,5-d]pyridazin-5(6H)-one] as the compound, how does the Ki read?
**A.** 2.8 nM

**Q.** How did the Ki turn out when C=CCn1nc(-c2ccco2)c2nc(Nc3ccc(N4CCCN(C(C)C)CC4)c(C)c3)ncc2c1=O [Example 228, 8-(furan-2-yl)-2-({3-methyl-4-[4-(propan-2-yl)-1,4-diazepan-1-yl]phenyl}amino)-6-(prop-2-en-1-yl)pyrimido[4,5-d]pyridazin-5(6H)-one] was run?
**A.** 3 nM

**Q.** With CC1(C)CNCc2cc(Nc3ncc4c(=O)n(-c5cccc6ccccc56)nc(-c5ccccn5)c4n3)ccc21 [Example 306, 2-[(4,4-dimethyl-1,2,3,4-tetrahydroisoquinolin-7-yl)amino]-6-(naphthalen-1-yl)-8-(pyridin-2-yl)pyrimido[4,5-d]pyridazin-5(6H)-one] as the compound, how does the Ki read?
**A.** 50 nM

**Q.** O=c1c2cnc(Nc3ccc(N4CCNCC4)cc3)nc2c(-c2nccs2)nn1-c1c(Cl)cccc1Cl [Example 344, 6-(2,6-dichlorophenyl)-2-{[4-(piperazin-1-yl)phenyl]amino}-8-(1,3-thiazol-2-yl)pyrimido[4,5-d]pyridazin-5(6H)-one] was tested. Which Ki did it give?
**A.** 0.25 nM

**Q.** How did the Ki turn out when CN1Cc2cc(Nc3ncc4c(=O)n(-c5ccccn5)nc(-c5ccccn5)c4n3)ccc2C(C)(C)C1 [Example 287] was run?
**A.** 11 nM

**Q.** Which Ki does the source give for CN1CCN(c2ccc(Nc3ncc4c(=O)n(-c5c(Cl)cccc5Cl)nc(-c5cccc(N6CCCC6)n5)c4n3)cc2)CC1 [Example 180, 6-(2,6-dichlorophenyl)-2-{[4-(4-methylpiperazin-1-yl)phenyl]amino}-8-[6-(pyrrolidin-1-yl)pyridin-2-yl]pyrimido[4,5-d]pyridazin-5(6H)-on] here?
**A.** 2 nM

**Q.** Cc1cc(Nc2ncc3c(=O)n(-c4c(Cl)cccc4Cl)nc(-c4cnn(C)c4)c3n2)ccc1N1CCCN(C)CC1 [Example 150, 6-(2,6-dichlorophenyl)-2-{[3-methyl-4-(4-methyl-1,4-diazepan-1-yl)phenyl]amino}-8-(1-methyl-1H-pyrazol-4-yl)pyrimido[4,5-d]pyridazin-5(6H)-one] was tested. Which Ki did it give?
**A.** 0.1 nM

**Q.** Which Ki does the source give for Cc1cc(Nc2ncc3c(=O)n(-c4c(Cl)cccc4Cl)nc(-c4ccccn4)c3n2)ccc1N1CCCN(C)CC1 [Example 223] here?
**A.** 0.2 nM

**Q.** Which Ki does the source give for CN1CCN(c2ccc(Nc3ncc4c(=O)n(-c5c(Cl)cncc5Cl)nc(-c5cn(C)cn5)c4n3)cc2)CC1 [Example 361, 6-(3,5-dichloropyridin-4-yl)-8-(1-methyl-1H-imidazol-4-yl)-2-{[4-(4-methylpiperazin-1-yl)phenyl]amino}pyrimido[4,5-d]pyridazin-5(6H)-one] here?
**A.** 4.4 nM

**Q.** How did the Ki turn out when CN1CCN(c2ccc(Nc3ncc4c(=O)n(-c5c(Cl)cccc5Cl)nc(-c5ccn(CCN6CCCCC6)n5)c4n3)cc2)CC1 [Example 232, 6-(2,6-dichlorophenyl)-2-{[4-(4-methylpiperazin-1-yl)phenyl]amino}-8-{1-[2-(piperidin-1-yl)ethyl]-1H-pyrazol-3-yl}pyrimido[4,5-d]pyridazin-5(6H)-one] was run?
**A.** 0.2 nM

**Q.** How did the Ki turn out when CN1Cc2cc(Nc3ncc4c(=O)n(-c5c(Cl)cccc5Cl)nc(CO)c4n3)ccc2C2(CC2)C1 [Example 432, 6-(2,6-dichlorophenyl)-8-(hydroxymethyl)-2-[(2′-methyl-2′,3′-dihydro-1′H-spiro[cyclopropane-1,4′-isoquinolin]-7′-yl)amino]pyrimido[4,5-d]pyridazin-5(6H)-one] was run?
**A.** 0.2 nM

**Q.** For Cc1nn(-c2c(F)cccc2Cl)c(=O)c2cnc(Nc3ccc(N4CCN(C)CC4)cc3)nc12 [Example 312, 6-(2-chloro-6-fluorophenyl)-8-methyl-2-{[4-(4-methylpiperazin-1-yl)phenyl]amino}pyrimido[4,5-d]pyridazin-5(6H)-one], which Ki is on record?
**A.** 1.9 nM

**Q.** How did the Ki turn out when C=CCn1nc(-c2ccccc2)c2nc(Nc3ccc(N4CCN(C)CC4)cc3)ncc2c1=O [Example 5, 6-allyl-2-{[4-(4-methylpiperazin-1-yl)phenyl]amino}-8-phenylpyrimido[4,5-d]pyridazin-5(6H)-one] was run?
**A.** 6 nM

**Q.** Which Ki does the source give for Cc1nn(-c2c(Cl)cccc2Cl)c(=O)c2cnc(Nc3ccc4c(c3)CN(CC(F)(F)F)CC4(C)C)nc12 [Example 370, 6-(2,6-dichlorophenyl)-2-{[4,4-dimethyl-2-(2,2,2-trifluoroethyl)-1,2,3,4-tetrahydroisoquinolin-7-yl]amino}-8-methylpyrimido[4,5-d]pyridazin-5(6H)-one] here?
**A.** 35 nM

Same assay, conditions: read-out: Wee-1 inhibition Ki

**Q.** With “6-(2-chlorophenyl)-2-{[4-(4-isopropylpiperazin-1-yl)-3-methylphenyl]amino}-8-(2-thienyl)pyrimido[4,5-d]pyridazin-5(6H)-one [Example 166]” as the compound, how does the Ki read?
**A.** 0.8 nM
